Laboratory results published in US10654853B2, “Spiro-condensed pyrrolidine derivatives as deubiquitylating enzymes (DUB) inhibitors” (MISSION THERAPEUTICS LIMITED, priority 2016, dated 2020).

Target: Cezanne 1 (Homo sapiens (Human), UniProt Q6GQQ9)
Experiment: Cezanne 1 biochemical IC50 assay (fluorescence polarisation, TAMRA labelled peptide linked to ubiquitin)
Details: Cezanne 1 biochemical IC50 assay; 30 min pre-incubation, read after 2 hr at room temperature; read-out: IC50 range
Experimental: The Cezanne 1 construct was PCR amplified and cloned into a pFLAG-CMV-6c vector (Sigma-Aldrich) with an N-terminal FLAG tag. HEK293T cells were transfected with FLAG-Cezanne 1 using TransIT-LT1 transfection reagent (Mirus) according to the manufacturer's instructions. Cells were harvested 48 hours after transfection. […] The resin was washed two times with low salt buffer and one time with high salt buffer (20 mM Tris, pH 7.5, 500 mM NaCl, 0.5 mM EDTA, 5 mM beta-mercaptoethanol, protease inhibitors (complete mini, Roche) and phosphatase inhibitors (PhosSTOP mini, Roche). To elute the bound Cezanne 1, elution buffer (10 mM Tris, pH 7.5, 150 mM NaCl, 0.5 mM EDTA, 10% glycerol, 0.5% NP40, 5 mM beta-mercaptoethanol, 0.15 mg/ml 3× FLAG peptide (Sigma-Aldrich)) was added to the resin and incubated at 4° C. for 2.5 hours while rotating. The resin was centrifuged at 4000 rpm for 30 seconds, and the supernatant containing purified FLAG-Cezanne 1 was removed and stored at −80° C. […] Dilution plates were prepared at 21 times the final concentration (2100 μM for a final concentration of 100 μM) in 50% DMSO in a 96-well polypropylene V-bottom plate (Greiner #651201). […] Reactions were performed in duplicate in black 384 well plates (small volume, Greiner 784076) in a final reaction volume of 21 μl. Either 1 μl of 50% DMSO or diluted compound was added to the plate. Cezanne 1 was diluted in reaction buffer (40 mM Tris, pH 7.5, 0.005% Tween 20, 0.5 mg/ml BSA, 5 mM—beta-mercaptoethanol) to the equivalent of 0.005 μl/well and 10 μl of diluted Cezanne 1 was added to the compound. Enzyme and compound were incubated for 30 min at room temp. Reactions were initiated by the addition of 50 nM of TAMRA labelled peptide linked to ubiquitin via an iso-peptide bond as fluorescence polarisation substrate. Reactions were read immediately after addition of substrate and following a 2 hr incubation at room temperature. Readings were performed on a Pherastar Plus (BMG Labtech). λ Excitation 540 nm; λ Emission 590 nm.

Cezanne 1, sequence (Q6GQQ9 whole entry): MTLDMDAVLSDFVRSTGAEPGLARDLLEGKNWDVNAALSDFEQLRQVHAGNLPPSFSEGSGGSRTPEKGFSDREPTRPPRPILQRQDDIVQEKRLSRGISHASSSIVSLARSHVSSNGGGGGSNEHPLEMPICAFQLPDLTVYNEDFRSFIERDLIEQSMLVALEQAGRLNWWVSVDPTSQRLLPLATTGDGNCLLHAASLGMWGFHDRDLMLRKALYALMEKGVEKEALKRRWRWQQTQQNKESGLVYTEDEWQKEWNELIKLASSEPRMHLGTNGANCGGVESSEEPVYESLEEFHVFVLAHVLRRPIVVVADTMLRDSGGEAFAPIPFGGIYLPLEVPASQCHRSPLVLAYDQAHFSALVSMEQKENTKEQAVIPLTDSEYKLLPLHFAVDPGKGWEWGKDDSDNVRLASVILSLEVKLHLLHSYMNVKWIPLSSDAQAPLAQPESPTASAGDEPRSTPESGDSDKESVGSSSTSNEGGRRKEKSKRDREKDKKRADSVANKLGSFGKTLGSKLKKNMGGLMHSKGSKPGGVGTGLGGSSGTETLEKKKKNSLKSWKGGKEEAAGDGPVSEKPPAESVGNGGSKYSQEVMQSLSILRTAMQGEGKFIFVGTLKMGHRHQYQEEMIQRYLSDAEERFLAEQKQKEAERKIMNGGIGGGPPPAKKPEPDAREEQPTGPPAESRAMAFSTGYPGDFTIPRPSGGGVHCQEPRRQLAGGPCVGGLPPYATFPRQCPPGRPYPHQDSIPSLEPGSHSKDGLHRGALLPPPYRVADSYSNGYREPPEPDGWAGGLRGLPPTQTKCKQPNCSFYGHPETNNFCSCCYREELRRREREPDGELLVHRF

Row | IC50 [nM] | Structure (SMILES)
1 | 100 to 1000 | Cn1cc(-c2ccc3c(c2)CC2(CCN(C#N)C2)C(=O)N3)cn1 (stereo not shown) [Example 97, 6′-(1-Methyl-1H-pyrazol-4-yl)-2′-oxo-1′,4′-dihydro-2′H-spiro[pyrrolidine-3,3′-quinoline]-1-carbonitrile]
2 | 100 to 1000 | CNC(=O)c1ccc(-c2ccc3c(c2)CC2(CCN(C#N)C2)C(=O)N3)cn1 (stereo not shown) [Example 98, 5-(1-Cyano-2′-oxo-1′,4′-dihydro-2′H-spiro[pyrrolidine-3,3′-quinolin]-6′-yl)-N-methylpicolinamide]
3 | 100 to 1000 | CNC(=O)c1ccc(-c2ccc3c(c2)CC2(CCN(C#N)C2)C(=O)N3)cc1 (stereo not shown) [Example 100, 4-(1-Cyano-2′-oxo-1′,4′-dihydro-2′H-spiro[pyrrolidine-3,3′-quinolin]-6′-yl)-N-methylbenzamide]
4 | 100 to 1000 | COc1ccc(C(C)C)cc1-c1ccc2c(c1)CC1(CCN(C#N)C1)C(=O)N2 (stereo not shown) [Example 101, 6′-(5-Isopropyl-2-methoxyphenyl)-2′-oxo-1′,4′-dihydro-2′H-spiro[pyrrolidine-3,3′-quinoline]-1-carbonitrile]
5 | 1000 to 10000 | N#CN1CCC2(Cc3cc(-c4cccc(OCc5ccccc5Cl)c4)ccc3NC2=O)C1 (stereo not shown) [Example 102, 6′-(3-((2-Chlorobenzyl)oxy)phenyl)-2′-oxo-1′,4′-dihydro-2′H-spiro[pyrrolidine-3,3′-quinoline]-1-carbonitrile]
6 | 100 to 1000 | COc1ccc(-c2ccc3c(c2)CC2(CCN(C#N)C2)C(=O)N3)cn1 (stereo not shown) [Example 103, 6′-(6-Methoxypyridin-3-yl)-2′-oxo-1′,4′-dihydro-2′H-spiro[pyrrolidine-3,3′-quinoline]-1-carbonitrile]
7 | 100 to 1000 | CC(C)Oc1ccc(F)cc1-c1ccc2c(c1)CC1(CCN(C#N)C1)C(=O)N2 (stereo not shown) [Example 104, 6′-(5-Fluoro-2-isopropoxyphenyl)-2′-oxo-1′,4′-dihydro-2′H-spiro[pyrrolidine-3,3′-quinoline]-1-carbonitrile]
8 | 1000 to 10000 | CN1CCN(C(=O)c2ccc(-c3ccc4c(c3)CC3(CCN(C#N)C3)C(=O)N4)cc2)CC1 (stereo not shown) [Example 106, 6′-(4-(4-Methylpiperazine-1-carbonyl)phenyl)-2′-oxo-1′,4′-dihydro-2′H-spiro[pyrrolidine-3,3′-quinoline]-1-carbonitrile]
9 | 100 to 1000 | Cn1ncc2cc(-c3ccc4c(c3)CC3(CCN(C#N)C3)C(=O)N4)ccc21 (stereo not shown) [Example 107, 6′-(1-Methyl-1H-indazol-5-yl)-2′-oxo-1′,4′-dihydro-2′H-spiro[pyrrolidine-3,3′-quinoline]-1-carbonitrile]
10 | 100 to 1000 | Cc1ccc2[nH]ncc2c1-c1ccc2c(c1)CC1(CCN(C#N)C1)C(=O)N2 (stereo not shown) [Example 108, 6′-(5-Methyl-1H-indazol-4-yl)-2′-oxo-1′,4′-dihydro-2′H-spiro[pyrrolidine-3,3′-quinoline]-1-carbonitrile]
11 | 100 to 1000 | N#CN1CCC2(Cc3cc(-c4cccc(NS(=O)(=O)C5CC5)c4)ccc3NC2=O)C1 (stereo not shown) [Example 109, N-(3-(1-Cyano-2′-oxo-1′,4′-dihydro-2′H-spiro[pyrrolidine-3,3′-quinolin]-6′-yl)phenyl)cyclopropanesulfonamide]
12 | 100 to 1000 | N#CN1CCC2(Cc3cc(-c4cncnc4)ccc3NC2=O)C1 (stereo not shown) [Example 111, 2′-Oxo-6′-(pyrimidin-5-yl)-1′,4′-dihydro-2′H-spiro[pyrrolidine-3,3′-quinoline]-1-carbonitrile]

Further lines, the molecule ahead of its results:

Row | Structure (SMILES) | IC50 [nM]
13 | N#CN1CC[C@@]2(C1)Oc1ncc(-c3cccc(F)c3)cc1NC2=O [Example 69, (S)-7-(3-Fluorophenyl)-2-oxo-1,2-dihydrospiro[pyrido[2,3-b][1,4]oxazine-3,3′-pyrrolidine]-1′-carbonitrile] | 100 to 1000
14 | N#Cc1ccc(-c2cnc3c(c2)NC(=O)[C@@]2(CCN(C#N)C2)O3)cc1 [Example 70, (S)-7-(4-Cyanophenyl)-2-oxo-1,2-dihydrospiro[pyrido[2,3-b][1,4]oxazine-3,3′-pyrrolidine]-1′-carbonitrile] | 100 to 1000
15 | N#Cc1cccc(-c2cnc3c(c2)NC(=O)[C@@]2(CCN(C#N)C2)O3)c1 [Example 71, (S)-7-(3-Cyanophenyl)-2-oxo-1,2-dihydrospiro[pyrido[2,3-b][1,4]oxazine-3,3′-pyrrolidine]-1′-carbonitrile] | 100 to 1000
16 | N#CN1CC[C@@]2(C1)Nc1ncc(-c3ccc(F)cc3)cc1NC2=O [Example 72, (S)-7-(4-Fluorophenyl)-2-oxo-1,4-dihydro-2H-spiro[pyrido[2,3-b]pyrazine-3,3′-pyrrolidine]-1′-carbonitrile] | 100 to 1000
17 | N#CN1CC[C@@]2(C1)Nc1ncc(-c3cccc(F)c3)cc1NC2=O [Example 73, (S)-7-(3-Fluorophenyl)-2-oxo-1,4-dihydro-2H-spiro[pyrido[2,3-b]pyrazine-3,3′-pyrrolidine]-1′-carbonitrile] | 100 to 1000
18 | N#CN1CC[C@@]2(C1)Oc1ncc(-c3ccc(F)cc3)cc1NC2=O [Example 74, (S)-7-(4-Fluorophenyl)-2-oxo-1,2-dihydrospiro[pyrido[2,3-b][1,4]oxazine-3,3′-pyrrolidine]-1′-carbonitrile] | 100 to 1000
19 | N#Cc1cccc(-c2cnc3c(c2)NC(=O)[C@@]2(CCN(C#N)C2)N3)c1 [Example 75, (S)-7-(3-Cyanophenyl)-2-oxo-1,4-dihydro-2H-spiro[pyrido[2,3-b]pyrazine-3,3′-pyrrolidine]-1′-carbonitrile] | 100 to 1000
20 | C[C@H]1NC(=O)C2(CCN(C#N)C2)NC1=O (stereo partly drawn) [Example 76, (8R)-8-Methyl-7,10-dioxo-2,6,9-triazaspiro[4.5]decane-2-carbonitrile] | 1000 to 10000
21 | N#CN1CCC2(C1)NC(=O)CNC2=O (stereo not shown) [Example 77, 7,10-Dioxo-2,6,9-triazaspiro[4.5]decane-2-carbonitrile] | 1000 to 10000
22 | C[C@@H]1NC(=O)C2(CCN(C#N)C2)NC1=O (stereo partly drawn) [Example 78, (8S)-8-Methyl-7,10-dioxo-2,6,9-triazaspiro[4.5]decane-2-carbonitrile] | 1000 to 10000
23 | N#CN1CCC2(C1)NC(=O)C(c1ccccc1)NC2=O (stereo not shown) [Example 79, 7,10-Dioxo-8-phenyl-2,6,9-triazaspiro[4.5]decane-2-carbonitrile] | 1000 to 10000
24 | CCC1CC2(CCN(C#N)C2)C(=O)N1 (stereo not shown) [Example 80, 8-Ethyl-6-oxo-2,7-diazaspiro[4.4]nonane-2-carbonitrile] | > 10000
25 | N#CN1CCC2(CC(Cc3ccccc3)NC2=O)C1 (stereo not shown) [Example 81, 8-Benzyl-6-oxo-2,7-diazaspiro[4.4]nonane-2-carbonitrile] | 1000 to 10000
26 | N#CN1CCC2(C1)OCc1ccccc1NC2=O (stereo not shown) [Example 85, 2-Oxo-1,5-dihydro-2H-spiro[benzo[e][1,4]oxazepine-3,3′-pyrrolidine]-1′-carbonitrile] | 1000 to 10000
27 | N#CN1CCC2(CNc3ncccc3NC2=O)C1 (stereo not shown) [Example 86, 2-Oxo-1,2,4,5-tetrahydrospiro[pyrido[2,3-b][1,4]diazepine-3,3′-pyrrolidine]-1′-carbonitrile] | 100 to 1000
28 | CC1(c2ccccc2)NC(=O)C2(CCN(C#N)C2)NC1=O (stereo not shown) [Example 87, 8-Methyl-7,10-dioxo-8-phenyl-2,6,9-triazaspiro[4.5]decane-2-carbonitrile] | 100 to 1000
29 | N#CN1CCC2(Cc3ccc(-c4cccc(OC(F)(F)F)c4)cc3NC2=O)C1 (stereo not shown) [Example 88, 2′-Oxo-7′-(3-(trifluoromethoxy)phenyl)-1′,4′-dihydro-2′H-spiro[pyrrolidine-3,3′-quinoline]-1-carbonitrile] | 1000 to 10000
30 | CN(C)C(=O)c1ccc(-c2ccc3c(c2)NC(=O)C2(CCN(C#N)C2)C3)cc1 (stereo not shown) [Example 89, 4-(1-Cyano-2′-oxo-1′,4′-dihydro-2′H-spiro[pyrrolidine-3,3′-quinolin]-7′-yl)-N,N-dimethylbenzamide] | 1000 to 10000
31 | Cn1nccc1-c1ccc2c(c1)CC1(CCN(C#N)C1)C(=O)N2 (stereo not shown) [Example 94, 6′-(1-Methyl-1H-pyrazol-5-yl)-2′-oxo-1′,4′-dihydro-2′H-spiro[pyrrolidine-3,3′-quinoline]-1-carbonitrile] | 100 to 1000
32 | N#CN1CCC2(Cc3cc(-c4cccc(OC(F)(F)F)c4)ccc3NC2=O)C1 (stereo not shown) [Example 95, 2′-Oxo-6′-(3-(trifluoromethoxy)phenyl)-1′,4′-dihydro-2′H-spiro[pyrrolidine-3,3′-quinoline]-1-carbonitrile] | 100 to 1000
33 | N#CN1CCC2(Cc3cc(-c4ccc(Oc5ccccc5)cc4)ccc3NC2=O)C1 (stereo not shown) [Example 96, 2′-Oxo-6′-(4-phenoxyphenyl)-1′,4′-dihydro-2′H-spiro[pyrrolidine-3,3′-quinoline]-1-carbonitrile] | 1000 to 10000
34 | CN(C)C(=O)c1ccc(-c2ccc3c(c2)CC2(CCN(C#N)C2)C(=O)N3)cc1 (stereo not shown) [Example 110, 4-(1-Cyano-2′-oxo-1′,4′-dihydro-2′H-spiro[pyrrolidine-3,3′-quinolin]-6′-yl)-N,N-dimethylbenzamide] | 100 to 1000
